Results taken from US11331290B2, “Niclosamide for the treatment of cancer metastasis” (Max-Delbrück-Centrum für Molekulare Medizin in der …, priority 2011, dated 2022).

Tested on: HCT116-CMVp-LUC cells
Experiment: HCT116-CMVp-LUC intrasplenic xenograft: liver metastasis, tumor growth, overall survival
Format: in vivo, mice
Conditions: for median survival: control 24 days
Description: All experiments were performed in accordance with the UKCCCR guidelines and approved by the responsible local authorities (State Office of Health and Social Affairs, Berlin, Germany). HCT116-CMVp-LUC cells (3×10^6 cells per mouse, resuspended in 50 μL PBS) were intrasplenically transplanted into 6-week-old female nonobese diabetic-severe combined immunodeficiency (NOD-SCID) mice. Mice were randomly assigned to 3 groups and reatment of mice started 24 hours after cell transplantation. Mice of the control group (n=9) were treated with daily doses of solvent. Mice of the second group (n=9) were daily treated intraperitoneally with 20 mg per kg niclosamide. Mice of the third group (n=9) were treated intraperitoneally with two doses of 15 mg per kg niclosamide per day. The experimental endpoint was reached when mice appeared moribund and/or the spleen tumor was palpable. This was the case with the majority of control mice on day 24. For long-term in vivo experiments mice randomly assigned to 3 groups. Mice of the control group (n=6) were treated intraperitoneally with daily doses of solvent. Mice of the second group (n=6) were daily treated intraperitoneally with 20 mg per kg niclosamide. Mice of the third group (n=6) were daily treated intraperitoneally for 24 days with 20 mg per kg niclosamide and for the residual days with solvent. Mice were killed by cervical dislocation when tumor reached the maximum in accordance with the local authorities.
Spleen (as the transplantation site) and liver (as a metastasis target organ) were removed. The amount of S100A4 mRNA in the tumor was determined by Trizol RNA isolation of tumor cryosections and quantitative real-time RT-PCR. The level of metastasis was evaluated by scoring. For each liver, a score was calculated as the sum of the volumes of the individual metastases. For each metastasis the formula [width2]×length was applied.
For in vivo luminescence imaging mice were anesthetized with 35 mg per kg Hypnomidate (Jassen-Cilag, Neuss, Germany) and received intraperitoneally 150 mg per kg D-luciferin (Biosynth, Staad, Switzerland) dissolved in sterile PBS. Imaging was performed with the NightOWL LB 981 system (Berthold Technologies, Bad Wildbad, Germany) with exposure times of 1 second and 20 seconds. ImageJ version 2.3 was used for color coding of signal intensity (presenting a 256 grayscale) and overlay pictures.
All calculations and statistical analyses were performed with GraphPad Prism version 4.01. Student t test was used for comparison of only two groups. One-way analysis of variance (ANOVA) was applied for comparing the control group with several treated groups followed by Bonferroni post hoc multiple comparisons. In cell cytotoxicity assay the half-maximal effective concentration to which cell viability was reduced to 50% (EC50) values were calculated by sigmoidal dose-response curve fit of x=log(x) transformed data. Kaplan-Meier analysis was used to plot overall survival and differences in curves were analyzed by Logrank test. All tests were two-sided, and P values less than 0.05 were considered to be statistically significant. If not stated otherwise, means are reported with 95% confidence interval.
(A) In vivo luminescence imaging of metastasis under niclosamide treatment. HCT116-CMVp-LUC cells stably expressing firefly luciferase (LUC) were intrasplenically transplanted into mice (per group n=4) followed by daily intraperitoneal treatment with 20 mg per kg niclosamide. For luminescence imaging, mice were anesthetized at the indicated days and received intraperitoneally D-luciferin. Exposure time for lateral and ventral imaging was 20 seconds per picture. In situ imaging and imaging of isolated organs was performed for 1 second per picture exposure time. Signal intensity of grayscale images (256 scale) were color coded (from low to high signal intensity: blue, green, yellow, red, white) and overlayed with bright field picture. […]

## O=C(Nc1ccc([N+](=O)[O-])cc1Cl)c1cc(Cl)ccc1O [niclosamide, 2′,5-dichloro-4′-nitrosalicylanilide]
20 mg per kg daily intraperitoneally, 24 days
  liver metastasis score, mean % of control: 37.9%
20 mg per kg daily intraperitoneally, day 24
  liver metastasis signal, in vivo luminescence imaging: No or only tiny liver metastasis signals
20 mg per kg i.p., continuously and discontinuously, vs solvent-treated animals
  size of liver metastases: clearly reduced
20 mg per kg i.p., either continuously or discontinuously, vs solvent-treated mice
  spleen tumor growth: clearly delayed
2×15 mg per kg per day intraperitoneally, 24 days
  liver metastasis score, mean % of control: 36.1%
Continuous treatment
  liver metastasis, mean difference control vs treatment: 89.1%
  median survival ratio control vs treatment: 0.56
Continuous treatment (20 mg per kg i.p. daily)
  liver metastasis score, mean % of control: 10.9%
Continuous treatment: 20 mg per kg i.p. daily
  median survival: 43 days
Discontinuous treatment
  liver metastasis, mean difference control vs treatment: 65.1%
  median survival ratio control vs treatment: 0.52
Discontinuous treatment (20 mg per kg i.p. for 24 days, then solvent)
  liver metastasis score, mean % of control: 34.9%
Discontinuous treatment: 20 mg per kg i.p. daily for 24 days, then solvent
  median survival: 46.5 days
